# Assay results as given in ChEMBL document CHEMBL1201862, “PubChem BioAssay data set” (2004).
# Activity calls are given as the source filed them.
# Assays:
# [1] = target: G-protein coupled receptor 35 (Homo sapiens, UniProt Q9HC97); test: inhibition of zaprinast-stimulated GPR35 beta-arrestin translocation – imaging, U2OS, beta-arrestin-GFP, zaprinast agonist, primary screen (AID 2058); type: functional;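 further: antagonist potency meaning inhibition of agonist-induced arrestin redistribution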
# Estrogen receptor beta [2] = target: T1, Estrogen receptor beta (Homo sapiens, UniProt Q92731); test: blockers of SRC-3 recruitment to ERβ – biochemical, ELISA, streptavidin-HRP readout, orthogonal assay, confirmation (AID 1060)
# Estrogen receptor beta [3] = target: T1, Estrogen receptor beta
# Estrogen receptor = target: T2, Estrogen receptor (Homo sapiens, UniProt P03372);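 further: potency for inhibiting coactivator peptide recruitment to the receptor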
# T2 sequence (P03372 whole entry): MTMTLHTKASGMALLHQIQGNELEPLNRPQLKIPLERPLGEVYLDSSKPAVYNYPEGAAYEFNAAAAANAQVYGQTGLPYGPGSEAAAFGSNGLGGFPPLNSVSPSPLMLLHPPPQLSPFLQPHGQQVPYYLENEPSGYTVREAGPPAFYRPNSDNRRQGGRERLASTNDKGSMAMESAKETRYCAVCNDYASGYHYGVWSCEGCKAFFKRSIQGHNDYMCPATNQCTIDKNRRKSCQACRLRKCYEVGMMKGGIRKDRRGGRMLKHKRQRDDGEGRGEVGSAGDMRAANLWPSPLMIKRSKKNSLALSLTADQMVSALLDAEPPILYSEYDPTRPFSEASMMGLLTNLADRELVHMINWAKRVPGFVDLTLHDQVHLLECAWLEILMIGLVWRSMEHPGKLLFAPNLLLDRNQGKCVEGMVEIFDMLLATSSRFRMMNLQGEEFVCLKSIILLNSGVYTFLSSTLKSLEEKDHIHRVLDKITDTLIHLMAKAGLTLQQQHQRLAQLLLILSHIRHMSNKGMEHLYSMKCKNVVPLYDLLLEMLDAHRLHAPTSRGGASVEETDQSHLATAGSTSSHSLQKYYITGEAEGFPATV
# [4] = target: T3, Alkaline phosphatase, tissue-nonspecific isozyme (Homo sapiens, UniProt P05186)
# T3 sequence (P05186 whole entry): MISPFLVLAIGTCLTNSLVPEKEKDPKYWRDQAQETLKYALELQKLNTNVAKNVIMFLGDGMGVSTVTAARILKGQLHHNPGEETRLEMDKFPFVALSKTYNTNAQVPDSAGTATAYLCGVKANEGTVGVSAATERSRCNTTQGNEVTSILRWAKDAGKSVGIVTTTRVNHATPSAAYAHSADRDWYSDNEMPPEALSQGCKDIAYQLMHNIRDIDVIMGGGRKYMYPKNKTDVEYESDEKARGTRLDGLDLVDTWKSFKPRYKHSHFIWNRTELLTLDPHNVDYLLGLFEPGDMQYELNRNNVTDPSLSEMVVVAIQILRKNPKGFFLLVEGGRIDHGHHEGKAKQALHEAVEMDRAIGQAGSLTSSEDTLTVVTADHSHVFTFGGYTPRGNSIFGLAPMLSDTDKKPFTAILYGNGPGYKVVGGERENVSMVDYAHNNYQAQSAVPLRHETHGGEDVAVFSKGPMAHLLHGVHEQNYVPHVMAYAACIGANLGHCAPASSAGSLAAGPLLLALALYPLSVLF
# H9c2 = test: cells; type: functional, cell-based; conditions: Rattus norvegicus, H9c2, Myocardium;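 further: confirmatory concentration-response retest of ultra-high-throughput screening hits for modulation of myocardial damage; cell death induced by hydrogen peroxide oxidative stress; compound pretreatment for 60 min then peroxide exposure for 2 h; potency is for protecting the cells against peroxide damage rather than for killing them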
# INS1 = test: INS-1E survival protection against cytokine death – cell-based, luminescence, retest, dose response (AID 449756); type: functional; conditions: Rattus norvegicus;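 further: cell death triggered by IL-1 beta plus TNF-alpha plus IFN-gamma mixture; protective hits raise ATP signal compared with cytokine alone wells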
# Cytochrome P450 2C9 = Cytochrome P450 2C9 (Homo sapiens, UniProt P11712)
# [5] = Luminescence Cell-Based Dose Response HTS to Identify Activators of Luciferase Translation or Activity in H4 […] Cells. [Related pubchem assays: 1829 (Project Summary), 1814 (Primary HTS)]; type: functional
# [6] = target: Dual specificity protein phosphatase 3 (Homo sapiens, UniProt P51452); test: SAR VHR1 Fluorescent Assay for In Vitro dose response studies Set 2. [Related pubchem assays (depositor defined):AID1654, AID1661, AID1878]; type: functional
# H4 = test: Luminescence Cell-Based Dose Response HTS to Identify Activators of 5'UTR Stem-Loop Driven Prion Protein mRNA Translation in H4 Neuroglioblastoma Cells. [Related pubchem assays: 1829 (Project Summary), 1814 (Primary HTS)]; type: functional; conditions: Homo sapiens
# [7] = target: Alkaline phosphatase, placental type (Homo sapiens, UniProt P05187); test: human placental alkaline phosphatase inhibition – biochemical, luminescence, confirmation (AID 1512); type: functional
# [8] = Luminescence Cell-Based Dose Confirmation HTS to Identify Activators of 5'UTR Stem-Loop Driven Alpha-Synuclein mRNA Translation in H4 Neuroglioblastoma Cells. [Related pubchem assays: 1829 (Project Summary), 1814 (Primary HTS)]; type: functional
# [9] = HGIII-sPLA2 enzyme inhibition potency – biochemical, QFRET, IC50, dose response (AID 743457);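 further: green fluorescence rise as the enzyme cleaves BODIPY PC-A2 in liposomes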
# [10] = target: T4, Tyrosine-protein phosphatase non-receptor type 7 (Homo sapiens, UniProt P35236); test: SAR analysis of chemical inhibitors of HePTP using a Fluorescent assay - Set 2. [Related pubchem assays (depositor defined):AID1059, AID1077, AID1661, AID2085, AID521]; type: functional
# T4 sequence (P35236 whole entry): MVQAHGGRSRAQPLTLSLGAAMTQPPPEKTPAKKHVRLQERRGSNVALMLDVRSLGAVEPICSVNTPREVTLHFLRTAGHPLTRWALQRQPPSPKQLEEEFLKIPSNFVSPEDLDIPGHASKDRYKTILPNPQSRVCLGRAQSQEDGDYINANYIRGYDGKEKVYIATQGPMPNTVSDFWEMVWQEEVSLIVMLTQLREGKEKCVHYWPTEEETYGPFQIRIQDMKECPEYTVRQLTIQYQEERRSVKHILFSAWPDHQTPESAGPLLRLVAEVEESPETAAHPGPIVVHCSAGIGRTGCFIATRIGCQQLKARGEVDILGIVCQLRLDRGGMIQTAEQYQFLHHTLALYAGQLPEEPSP
# HeLa = test: Cytotoxicity counterscreen assay for transcriptional activators of heat shock protein 70 (Hsp70). [Related pubchem assays: 1203, 1252 ]; type: functional; conditions: Homo sapiens;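 further: cells exposed to compound for 16 hours before readout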
# [11] = target: Acyl-homoserine lactone acylase PvdQ (Pseudomonas aeruginosa (strain LESB58), UniProt Q9I194); test: PvdQ acylase enzyme activity blockers – biochemical, fluorescence, plate reader and imaging, cherry-picks, dose response (AID 493231)
# [12] = toxicity toward HepG2 liver cells – cell-based, plate reader, cherry-pick, antagonist series, cytotoxicity control, dose response (AID 743416); type: functional
# HEK293 = test: EBV LMP1 TES2 canonical NF-kB signalling blockers – cell-based, HEK293, luciferase, cherry-pick, dose response (AID 588343); type: functional; conditions: Homo sapiens
# [13] = target: Lysosomal acid glucosylceramidase (Homo sapiens, UniProt P04062); test: Dose response cell-based high throughput screening assay to identify enhancers of beta-glucosidase activity. [Related pubchem assays: 784 ]; type: functional
# [14] = viability loss in HEK293 cells – cell-based, plate reader, cherry-picked samples, cytotoxicity control, dose response (AID 743446); type: functional
# [15] = Luminescence Cell-Based Dose Response HTS to Identify Inhibitors of 5'UTR Stem-Loop Driven Prion Protein mRNA Translation in H4 Neuroglioblastoma Cells. [Related pubchem assays: 1827 (Project Summary), 1813 (Primary HTS)]; type: functional
# [16] = A549 cell cytotoxicity, dose response, cytotoxicity control, plate reader, cherry-pick, antagonist series (AID 743412); type: functional, cell-based
# [17] = blockers of bursicon-stimulated LGR2 cAMP reporter – cell-based, HEK293, CRE-luciferase reporter, cherry pick, set 2, dose response (AID 743343); type: functional;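 further: transfected cells were stimulated with diluted bursicon conditioned medium after compound addition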
# [18] = blockade of melanocortin 4 receptor signaling – cell-based, plate reader, cherry pick, counter-screen for LGR2 antagonist project, dose response (AID 743444); type: functional;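 further: transfected HEK 293 cells stimulated with alpha-MSH peptide; potency of inhibitors of the alpha-MSH evoked signal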
# [19] = alpha-synuclein stem-loop luciferase translation blockers – H4 neuroglioma cells, luminescence, confirmation (AID 1988); type: functional, cell-based
# [20] = target: FAD-linked sulfhydryl oxidase ALR (Homo sapiens, UniProt P55789); test: ALR-catalysed DTT oxidation blockers – biochemical, H2O2 detection, luminescence, cherry-pick, dose response (AID 493248)
# [21] = target: T5, Short transient receptor potential channel 4 (Mus musculus, UniProt Q9QUQ5); test: block of DAMGO-driven TRPC4 calcium entry – cell-based, HEK293 TRPC4/mu-opioid, Fluo-4 calcium, dose response (AID 434942); type: functional;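 further: potency of inhibitors blocking the TRPC4 calcium response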
# T5 sequence (Q9QUQ5 whole entry): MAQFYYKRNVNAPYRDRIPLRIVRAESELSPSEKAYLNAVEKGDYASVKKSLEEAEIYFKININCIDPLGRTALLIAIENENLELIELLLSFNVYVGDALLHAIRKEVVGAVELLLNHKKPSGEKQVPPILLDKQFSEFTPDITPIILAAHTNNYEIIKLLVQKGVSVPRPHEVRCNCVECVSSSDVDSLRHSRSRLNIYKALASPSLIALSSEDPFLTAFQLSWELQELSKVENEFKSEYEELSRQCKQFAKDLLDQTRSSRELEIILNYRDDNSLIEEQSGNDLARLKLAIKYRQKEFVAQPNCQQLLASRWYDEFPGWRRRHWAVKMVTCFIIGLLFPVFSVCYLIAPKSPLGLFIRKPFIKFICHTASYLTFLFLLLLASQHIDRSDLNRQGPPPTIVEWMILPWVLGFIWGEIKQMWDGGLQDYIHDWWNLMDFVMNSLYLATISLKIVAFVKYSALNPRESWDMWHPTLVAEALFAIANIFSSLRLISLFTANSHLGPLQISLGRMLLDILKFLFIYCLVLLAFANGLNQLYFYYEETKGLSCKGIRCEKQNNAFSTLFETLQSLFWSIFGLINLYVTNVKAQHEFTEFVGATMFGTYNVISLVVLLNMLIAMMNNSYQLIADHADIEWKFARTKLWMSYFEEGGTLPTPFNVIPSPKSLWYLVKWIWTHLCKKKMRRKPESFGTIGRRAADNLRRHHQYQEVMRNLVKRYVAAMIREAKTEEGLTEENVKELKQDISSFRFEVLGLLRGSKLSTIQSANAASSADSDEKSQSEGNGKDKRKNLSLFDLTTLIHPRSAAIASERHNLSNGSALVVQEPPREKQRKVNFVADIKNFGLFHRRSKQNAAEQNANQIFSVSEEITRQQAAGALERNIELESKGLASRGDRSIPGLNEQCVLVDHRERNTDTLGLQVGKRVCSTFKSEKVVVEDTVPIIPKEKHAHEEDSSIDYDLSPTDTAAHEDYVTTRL
# [22] = target: Delta-type opioid receptor (Homo sapiens, UniProt P41143); test: Counterscreen for agonists of heterodimerization of the mu 1 (OPRM1) and delta 1 (OPRD1) opioid receptors: Luminescence-based cell-based high throughput dose response assay to identify agonists of OPRD1 homodimerization. [Related pubchem assays (depositor defined):AID504326, AID504355, AID504692, AID504904, AID504905]; type: functional
# Mu-type opioid receptor = Mu-type opioid receptor (Homo sapiens, UniProt P35372); test: Counterscreen for agonists of heterodimerization of the mu 1 (OPRM1) and delta 1 (OPRD1) opioid receptors: Luminescence-based cell-based high throughput dose response assay to identify agonists of OPRM1 homodimerization.; type: functional;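 further: U2OS cells expressing OPRM1 and beta-arrestin as split beta-galactosidase partners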
# Nonstructural protein 1 = Nonstructural protein 1 (Influenza A virus, UniProt Q194T2); type: functional, Influenza A virus (A/California/07/2009(H1N1))
# [23] = target: 5-hydroxytryptamine receptor 5A (Homo sapiens, UniProt P47898); test: Counterscreen for agonists of OPRM1-OPRD1 heterodimerization: luminescence-based cell-based high throughput dose response assay to identify agonists of 5-hydroxytryptamine (serotonin) 5A receptor (HTR5A). [Related pubchem assays (depositor defined):AID504326, AID504355, AID504692, AID504904, AID504905]; type: functional
# Bcl-2-like protein 10 = Bcl-2-like protein 10 (Homo sapiens, UniProt Q9HD36); test: Bcl-B/TR3 peptide binding disruption – biochemical, fluorescence polarization, FITC-TR3 peptide, selectivity assay for Bfl-1 inhibitor project, primary screen (AID 748);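 further: fluorescence polarization from a fluorescein-labelled TR3 peptide binding purified Bcl-B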
# Sequence of Bcl-2-like protein 10 (Q9HD36 whole entry): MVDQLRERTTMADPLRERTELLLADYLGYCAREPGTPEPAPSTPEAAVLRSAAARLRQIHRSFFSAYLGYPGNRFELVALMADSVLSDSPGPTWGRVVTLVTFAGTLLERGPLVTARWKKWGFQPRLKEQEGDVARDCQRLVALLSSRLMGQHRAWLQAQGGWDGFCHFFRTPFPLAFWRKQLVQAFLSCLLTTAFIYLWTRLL
# Sequence of Dual specificity protein phosphatase 3 (P51452 whole entry): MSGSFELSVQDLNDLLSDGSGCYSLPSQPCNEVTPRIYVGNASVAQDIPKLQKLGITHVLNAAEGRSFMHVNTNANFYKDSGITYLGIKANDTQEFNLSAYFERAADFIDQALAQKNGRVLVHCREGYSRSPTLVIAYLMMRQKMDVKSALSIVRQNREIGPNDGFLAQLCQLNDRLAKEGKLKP
# T1 sequence (Q92731 whole entry): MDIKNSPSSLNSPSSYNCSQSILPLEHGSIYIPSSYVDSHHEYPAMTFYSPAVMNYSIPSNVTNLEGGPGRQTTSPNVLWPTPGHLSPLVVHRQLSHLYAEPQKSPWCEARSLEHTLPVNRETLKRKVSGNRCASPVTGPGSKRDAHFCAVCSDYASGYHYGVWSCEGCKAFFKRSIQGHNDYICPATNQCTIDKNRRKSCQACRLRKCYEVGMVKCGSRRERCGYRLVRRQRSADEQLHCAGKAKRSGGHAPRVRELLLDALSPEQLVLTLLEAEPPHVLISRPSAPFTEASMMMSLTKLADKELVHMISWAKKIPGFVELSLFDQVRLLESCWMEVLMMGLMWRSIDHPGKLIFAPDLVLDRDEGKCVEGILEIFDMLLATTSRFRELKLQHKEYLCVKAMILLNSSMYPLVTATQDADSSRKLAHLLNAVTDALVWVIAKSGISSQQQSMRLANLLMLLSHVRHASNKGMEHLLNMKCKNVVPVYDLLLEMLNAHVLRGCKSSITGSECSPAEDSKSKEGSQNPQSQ
# Sequence of Acyl-homoserine lactone acylase PvdQ (Q9I194 24-193 limits assumed): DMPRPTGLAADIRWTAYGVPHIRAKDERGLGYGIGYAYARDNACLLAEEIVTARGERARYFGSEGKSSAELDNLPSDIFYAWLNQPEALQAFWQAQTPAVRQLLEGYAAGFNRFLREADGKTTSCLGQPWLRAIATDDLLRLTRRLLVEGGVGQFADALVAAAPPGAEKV
# Sequence of Acyl-homoserine lactone acylase PvdQ (Q9I194 217-762 limits assumed): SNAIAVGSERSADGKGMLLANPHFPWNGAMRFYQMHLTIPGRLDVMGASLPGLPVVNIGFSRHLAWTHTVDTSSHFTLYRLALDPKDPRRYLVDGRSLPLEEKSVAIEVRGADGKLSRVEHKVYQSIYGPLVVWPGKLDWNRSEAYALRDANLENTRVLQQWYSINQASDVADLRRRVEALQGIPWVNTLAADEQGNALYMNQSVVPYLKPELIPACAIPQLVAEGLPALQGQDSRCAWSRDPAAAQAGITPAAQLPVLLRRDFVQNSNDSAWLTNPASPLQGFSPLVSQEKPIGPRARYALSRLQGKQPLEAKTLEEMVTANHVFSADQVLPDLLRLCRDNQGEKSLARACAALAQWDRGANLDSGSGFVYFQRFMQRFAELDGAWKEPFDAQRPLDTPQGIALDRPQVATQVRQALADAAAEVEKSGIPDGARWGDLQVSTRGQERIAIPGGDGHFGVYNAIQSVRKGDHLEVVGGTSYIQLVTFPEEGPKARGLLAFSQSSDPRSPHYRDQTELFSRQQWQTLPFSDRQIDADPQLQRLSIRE
# Sequence of Lysosomal acid glucosylceramidase (P04062 whole entry): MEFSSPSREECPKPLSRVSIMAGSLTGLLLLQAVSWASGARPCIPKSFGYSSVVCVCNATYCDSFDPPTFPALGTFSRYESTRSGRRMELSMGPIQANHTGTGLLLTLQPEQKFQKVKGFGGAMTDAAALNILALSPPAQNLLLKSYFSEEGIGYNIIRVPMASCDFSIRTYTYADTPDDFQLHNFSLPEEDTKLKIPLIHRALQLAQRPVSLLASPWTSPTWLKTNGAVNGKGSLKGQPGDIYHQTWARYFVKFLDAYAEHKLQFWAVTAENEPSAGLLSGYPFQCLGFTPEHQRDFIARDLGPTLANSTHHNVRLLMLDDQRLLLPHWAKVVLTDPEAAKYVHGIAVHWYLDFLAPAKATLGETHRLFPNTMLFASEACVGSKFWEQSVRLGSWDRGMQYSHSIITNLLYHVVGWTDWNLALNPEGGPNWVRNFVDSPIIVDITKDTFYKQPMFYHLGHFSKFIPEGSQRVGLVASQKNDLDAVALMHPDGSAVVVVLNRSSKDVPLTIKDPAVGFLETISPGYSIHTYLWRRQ
# Sequence of Cytochrome P450 2C9 (P11712 whole entry): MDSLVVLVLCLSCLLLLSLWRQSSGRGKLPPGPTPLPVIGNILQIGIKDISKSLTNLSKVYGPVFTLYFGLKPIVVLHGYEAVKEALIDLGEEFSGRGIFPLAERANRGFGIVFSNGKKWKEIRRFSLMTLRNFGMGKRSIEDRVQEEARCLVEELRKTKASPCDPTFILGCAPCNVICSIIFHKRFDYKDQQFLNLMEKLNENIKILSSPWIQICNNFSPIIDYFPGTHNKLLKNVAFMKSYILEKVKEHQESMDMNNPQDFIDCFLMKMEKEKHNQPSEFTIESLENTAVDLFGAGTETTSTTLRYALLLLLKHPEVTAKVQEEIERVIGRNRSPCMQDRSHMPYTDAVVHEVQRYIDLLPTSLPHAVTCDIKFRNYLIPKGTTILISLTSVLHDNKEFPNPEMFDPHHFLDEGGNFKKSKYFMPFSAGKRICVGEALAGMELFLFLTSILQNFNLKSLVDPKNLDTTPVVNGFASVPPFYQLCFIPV
# Sequence of Alkaline phosphatase, placental type (P05187 whole entry): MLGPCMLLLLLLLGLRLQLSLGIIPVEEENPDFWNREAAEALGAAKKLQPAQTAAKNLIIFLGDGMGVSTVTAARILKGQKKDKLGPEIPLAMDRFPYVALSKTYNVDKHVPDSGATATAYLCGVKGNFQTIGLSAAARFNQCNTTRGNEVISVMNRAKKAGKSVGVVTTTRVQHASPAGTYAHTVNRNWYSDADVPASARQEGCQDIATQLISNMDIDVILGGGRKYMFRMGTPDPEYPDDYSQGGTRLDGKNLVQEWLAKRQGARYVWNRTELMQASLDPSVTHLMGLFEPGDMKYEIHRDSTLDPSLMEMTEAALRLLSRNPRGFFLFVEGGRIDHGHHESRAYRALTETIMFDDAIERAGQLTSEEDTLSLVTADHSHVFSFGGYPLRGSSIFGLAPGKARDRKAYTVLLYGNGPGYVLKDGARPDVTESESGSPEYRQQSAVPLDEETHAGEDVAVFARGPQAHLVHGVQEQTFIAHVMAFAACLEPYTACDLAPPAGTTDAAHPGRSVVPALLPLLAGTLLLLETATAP
# Sequence of 5-hydroxytryptamine receptor 5A (P47898 whole entry): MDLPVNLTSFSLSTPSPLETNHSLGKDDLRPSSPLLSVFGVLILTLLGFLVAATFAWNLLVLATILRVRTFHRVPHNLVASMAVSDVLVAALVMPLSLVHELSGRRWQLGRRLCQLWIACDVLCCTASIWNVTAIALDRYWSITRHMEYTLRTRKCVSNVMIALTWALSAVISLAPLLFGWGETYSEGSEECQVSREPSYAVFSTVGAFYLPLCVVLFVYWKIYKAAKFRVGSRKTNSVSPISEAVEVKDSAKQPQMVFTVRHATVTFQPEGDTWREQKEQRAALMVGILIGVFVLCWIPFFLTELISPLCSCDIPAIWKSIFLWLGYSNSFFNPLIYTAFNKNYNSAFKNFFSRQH
# Sequence of Nonstructural protein 1 (Q194T2 whole entry): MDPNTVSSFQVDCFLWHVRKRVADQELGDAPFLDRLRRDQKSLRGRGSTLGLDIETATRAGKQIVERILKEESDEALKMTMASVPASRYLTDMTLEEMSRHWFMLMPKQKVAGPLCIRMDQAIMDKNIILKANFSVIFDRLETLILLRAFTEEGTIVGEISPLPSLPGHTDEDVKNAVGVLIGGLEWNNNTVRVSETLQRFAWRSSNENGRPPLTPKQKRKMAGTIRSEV
# Sequence of Mu-type opioid receptor (P35372 whole entry): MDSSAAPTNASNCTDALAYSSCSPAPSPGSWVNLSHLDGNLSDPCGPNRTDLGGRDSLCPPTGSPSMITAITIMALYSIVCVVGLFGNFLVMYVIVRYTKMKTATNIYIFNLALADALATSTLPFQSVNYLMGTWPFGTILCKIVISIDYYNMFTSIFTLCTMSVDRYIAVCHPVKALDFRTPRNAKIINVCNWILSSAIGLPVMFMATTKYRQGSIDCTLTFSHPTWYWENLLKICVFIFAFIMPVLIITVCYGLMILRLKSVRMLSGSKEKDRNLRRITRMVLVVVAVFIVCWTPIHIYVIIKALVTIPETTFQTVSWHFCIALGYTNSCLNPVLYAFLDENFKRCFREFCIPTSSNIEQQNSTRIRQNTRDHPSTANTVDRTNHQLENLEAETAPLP
# Sequence of FAD-linked sulfhydryl oxidase ALR (P55789 whole entry): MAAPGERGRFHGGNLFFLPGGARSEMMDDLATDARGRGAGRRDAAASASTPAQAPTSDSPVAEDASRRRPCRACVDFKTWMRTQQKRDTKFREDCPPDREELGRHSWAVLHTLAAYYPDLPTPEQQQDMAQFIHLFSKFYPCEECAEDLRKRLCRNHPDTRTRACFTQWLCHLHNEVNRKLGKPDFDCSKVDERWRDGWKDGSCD
# Sequence of Delta-type opioid receptor (P41143 whole entry): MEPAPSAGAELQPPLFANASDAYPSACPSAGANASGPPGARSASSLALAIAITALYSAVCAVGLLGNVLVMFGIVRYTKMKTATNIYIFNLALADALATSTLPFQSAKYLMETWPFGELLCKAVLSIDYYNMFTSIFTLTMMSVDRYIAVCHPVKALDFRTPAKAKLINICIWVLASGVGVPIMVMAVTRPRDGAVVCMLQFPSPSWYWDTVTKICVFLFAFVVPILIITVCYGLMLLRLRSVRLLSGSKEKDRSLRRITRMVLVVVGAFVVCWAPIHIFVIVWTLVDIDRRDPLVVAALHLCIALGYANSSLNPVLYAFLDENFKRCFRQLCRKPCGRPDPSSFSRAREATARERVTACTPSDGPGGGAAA
smiles,measurement,setting,value
CN(C)c1ccc(/C=C2\NC(=S)N(Cc3ccccc3)C2=O)cc1,IC50,[1],0.651 µM (active)
COc1ccc(Cl)cc1NC(=O)c1ocnc1C,IC50,Estrogen receptor beta [2],> 109 µM (not active)
same,IC50,Estrogen receptor beta [3],8.77 µM (active)
same,IC50,Estrogen receptor,24.9 µM (active)
O=C(NCc1ccccc1)NC1(C(=O)N2CCN(c3ccccc3)CC2)CCCCC1,EC50,[4],> 100 µM (not active)
Cc1ccc2c(C)nc(Nc3nc(O)cc(CSc4nc5ccccc5[nH]4)n3)nc2c1,IC50,H9c2,> 79 µM (inactive)
same,AC50,INS1,61.7 µM (active)
same,AC50,Cytochrome P450 2C9,0.1 µM (inconclusive)
same,EC50,[4],82.2 µM (not active)
Cc1ccc(NC(S)=NNC(=O)c2nn(C)c(C)c2Cl)cc1,EC50,[5],12 µM (active)
same,IC50,[6],> 100 µM (inactive)
same,EC50,H4,10.9 µM (active)
same,IC50,[7],> 100 µM (inactive)
same,EC50,[8],6.19 µM (active)
same,IC50,[9],> 122 µM (inactive)
same,IC50,[10],> 100 µM (inactive)
O=C1NC(=O)C2(COC3(CCCC3)OC2)S1,CC50,HeLa,> 99 µM (not active)
COc1ccc(CNCc2cccc(Cl)c2)cc1,AC50,[11],6.75 µM (active)
CN(C)c1ccc(-c2nc3ccccc3n2C)cc1,AC50,[12],> 52 µM (inactive)
same,AC50,HEK293,2.11 µM (active)
same,EC50,[13],> 50 µM (not active)
same,AC50,[14],32.2 µM (active)
same,EC50,[15],12.7 µM (active)
same,AC50,[16],38.2 µM (active)
same,AC50,[17],4.7 µM (active)
same,AC50,[18],4.64 µM (active)
same,EC50,[19],7.88 µM (active)
same,AC50,[20],6.13 µM (active)
O=C1CC(=O)N(c2ccc3c(c2)OCO3)C(=O)N1,EC50,[13],> 50 µM (not active)
COc1ccc(OC)c(C(=S)NCc2ccc(F)c(C(F)(F)F)c2)c1,IC50,[6],60.8 µM (active)
same,IC50,[10],15.5 µM (active)
N#CCN(N=Nc1ccccc1)c1ccccc1,AC50,[11],9.41 µM (active)
CC(=O)Nc1ccc(S(=O)(=O)NC2=C(N3CCN(Cc4ccccc4)CC3)C(=O)c3ccccc3C2=O)cc1,EC50,[21],1.06 µM (active)
same,EC50,[22],> 92.4 µM (inactive)
same,EC50,Mu-type opioid receptor,> 92.4 µM (inactive)
same,IC50,Nonstructural protein 1,21.4 µM (active)
same,EC50,[23],> 92.4 µM (inactive)
same,IC50,Bcl-2-like protein 10,77.9 µM (inactive)
